Source: the NIST ThermoML archive (doi:10.1021/acs.jced.5b00209)

Details: 101.33 kPa, Liquid; for viscosity: Capillary tube (Ostwald / Ubbelohde) method; for mass density: Pycnometric method

C[S+](C)[O-] [dimethyl sulfoxide]
Details | mass density [kg/m3] | viscosity [mPa·s]
298.15 K | 1096.8 | 2.01
303.15 K | 1091.4 | 1.82
308.15 K | 1086.1 | 1.65
313.15 K | 1081.2 | 1.54
318.15 K | 1075.3 | 1.37
